The assay relates to CEM cells HIV-1 protection, formazan growth assay. The assay is described as follows: NCI AIDS Antiviral Assay. The note with it: for IC50: measured here: growth of uninfected CEM cells. In outline: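 CEM (human) cells, HIV-1 infected vs uninfected, 5-point dosing, formazan growth read-out. Retest threshold 50% protection.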

Calls of active or inactive are those of the source.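 How the source made its calls: active means compounds giving half or more protection of infected cells from virus-caused growth loss, again on retest; inactive means the rest.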 Where a SMILES comes first, the peptide text is derived from it.

Turning to `Cc1cc(C(=O)CSC(=S)SC(C)(C)C)ccc1Cl`, the EC50 (usually the concentration at which the effect is half-maximal) was over 30.2 µM and the half-maximal inhibitory concentration (IC50) – broadly, the concentration that inhibits the measured activity by half – is over 30.2 µM.
Consider `COc1ccc(CCN(C)CCC[C@](C#N)(c2ccc(OC)c(OC)c2)C(C)C)cc1OC`, for which the EC50 is over 200 µM and the IC50 worked out at 38.9 µM.
For `CC(C)=CC(=O)CC(=O)C(=O)Nc1ccc(Cl)c(Cl)c1`, in that order: over 417 µM and over 417 µM.
Taken in the same sequence, the figures for `O=C(Cn1c(=O)cc(Nc2ccccc2)c2ccccc21)Nc1ccccc1` were over 200 µM and 89.1 µM.
Taken in the same sequence, the figures for `COc1cc(CC(=O)c2cc3c(cc2-c2ccccc2)OCO3)cc(OC)c1OC` were over 89.1 µM and 24 µM.
Take `N#CC(NCc1cccc(CNC(C#N)c2ccccc2)c1)c1ccccc1` (stereo unspecified): the EC50 is over 200 µM and the IC50 was found to be 89.1 µM.
Taken in the same sequence, the figures for `COc1ccc2c(c1)CC[C@@H]1[C@@H]2CC[C@]2(C)/C(=N/OCCN3CCCC3)CC[C@@H]12` were over 200 µM and 1.12 µM.
Turning to `O=C1/C(=C/c2ccc(OC(=O)c3ccccc3)cc2)CCC/C1=C\c1ccc(OC(=O)c2ccccc2)cc1`, the EC50 was over 100 µM and the IC50 was over 100 µM.
As to `O=S(CC(O)c1ccccc1)c1ccccc1` (stereo unspecified), the EC50 was over 200 µM and the IC50 came out at 23.4 µM.
With `Cc1nc(C(=Nc2ccc(Br)cc2)Nn2cnnc2)no1`, the EC50 was over 200 µM.
For the molecule `Cc1ccc(N=Nc2c(-c3ccccc3)nn(C(=O)CC(=O)Nc3ccc(Cl)cc3)c2-c2ccccc2)cc1`, the EC50 was over 9.77 µM and the IC50 was over 9.77 µM.
As for `CC1(C)C(CBr)=[N+]([O-])C(C)(C)N1O`, the EC50 is over 200 µM and the half-inhibitory concentration (IC50) is 3.72 µM.
Regarding `Cn1cc(NC(=O)c2nc(NC(=O)c3nc(NC(=O)/C=C/C(=O)Nc4cn(C)c(C(=O)Nc5cn(C)c(C(=O)Nc6cn(C)c(C(=O)NCCC(=N)N)n6)n5)n4)cn3C)cn2C)nc1C(=O)NCCC(=N)N`, the EC50 is over 50.1 µM and the half-inhibitory concentration (IC50) was determined as 8.51 µM.
As for `O=c1/c(=C\c2ccccc2Cl)sc2n1CCN=2`, the outcome was inactive.
On to `c1ccc2c(c1)SC1Sc3ccccc3[S+]21` (stereo unspecified), for which the EC50 was over 200 µM and the IC50 turned out to be 11.5 µM.
For `Cc1ccc2ccc3c(=O)cc(C)[nH]c3c2n1`, in that order: 9.77 µM and 32.4 µM.
Regarding `C[C@]12OC[C@H](c3ccccc3)N1C(=O)C1[C@H]2CC12SCCS2` (stereo partly specified), the EC50 was over 200 µM and the IC50 stood at 178 µM.
For `CC(C)(C)C(=O)OCC1CCC[N+]2(C)CCCCC12` (stereo unspecified), in that order: over 200 µM and over 200 µM.
For `Cn1c(=O)ccc2cc(C(=O)c3ccccc3)ccc21`, in that order: over 191 µM and 39.8 µM.
Taken in the same sequence, the figures for `COc1ccc(-c2c3c(nc4nc(SC)nc(SC)c24)CCCC3)cc1OC` were over 100 µM and 81.3 µM.
Consider `Cc1nc(N)c(N2CCN(S(=O)(=O)N(Cc3ccccc3)Cc3ccccc3)CC2)c(=O)[nH]1`, for which the EC50 was over 195 µM and the IC50 was 120 µM.
As to `CC(C)[P+](c1ccccc1)(c1ccccc1)c1ccccc1`, the EC50 is over 200 µM and the IC50 worked out at 5.5 µM.
For `Cc1cc(/C(C#N)=C/c2ccc(N(C)C)cc2)cc(C)c1[N+](=O)[O-]`, in that order: over 2 µM and 0.105 µM.
As to `CCOC(=O)c1ncn2c1[nH]c(=O)c1ccccc12`, the EC50 is over 7.41 µM and the IC50 is over 7.41 µM.
With `Cc1cn([C@H]2CN(O)C[C@@H](CO)O2)c(=O)[nH]c1=O`, the EC50 is over 200 µM and the IC50 is over 200 µM.
`CC(CO)CCNc1ncnc2c1ncn2CCC#N` (stereo unspecified): the EC50 is over 200 µM and the IC50 was over 200 µM.
Turning to `CCNc1nc2c(ncn2C2CC(O)C(COP(=O)(O)O)O2)c(=O)[nH]1` (stereo unspecified), the EC50 was over 100 µM and the IC50 is over 100 µM.
Regarding `CC(O)C(O)C(N)CC=O` (stereo unspecified), the EC50 is over 200 µM and the IC50 is over 200 µM.
Turning to `O=C(O)c1ccc(NC(=O)c2ccccc2[Se][Se]c2ccccc2C(=O)Nc2ccc(C(=O)O)cc2)cc1`, the EC50 is 13.8 µM and the IC50 was found to be 18.6 µM.
For the molecule `O=C(Nc1ccc(/C=C/c2ccc(NC(=O)c3cc(S(=O)(=O)O)ccc3O)cc2S(=O)(=O)O)c(S(=O)(=O)O)c1)c1cc(S(=O)(=O)O)ccc1O`, the EC50 is 93.3 µM and the IC50 is over 200 µM.
Taken in the same sequence, the figures for `C/C(=C\CO)CCC1=C(C=O)C[C@H](OC2OCC(O)C(O)C2O)C2[C@@](C)(CO)CCC[C@]12C` (stereo partly specified) were over 263 µM and over 263 µM.
Taken in the same sequence, the figures for `COCOc1c(OC)c(C2(O)C(=O)N(C)c3ccccc32)c(OCOC)c(OC)c1C1(O)C(=O)N(C)c2ccccc21` (stereo unspecified) were over 200 µM and 42.7 µM.
As to `COc1ccc(/C=C(/C(=O)c2ccccc2)c2ccccc2)cc1`, the EC50 was over 8.71 µM and the IC50 is over 8.71 µM.
Regarding `CCN(CC)C(=S)N/N=C/c1cc(OC)ccc1O`, the EC50 was over 200 µM and the IC50 worked out at 10 µM.
In the case of `Fc1ccccc1C=NC12CC3CC(CC(C3)C1)C2`, the EC50 is over 20.4 µM and the IC50 is over 20.4 µM.
On to `COC(=O)c1ncn(C(C(=O)OC)C(=O)OC)c1O`, for which the EC50 is over 200 µM and the IC50 was over 200 µM.
Consider `CCCCN1C(=O)[C@](O)(NC(C)=O)[C@H]1COC(C)(C)C`, for which the EC50 was over 43.7 µM and the IC50 is over 43.7 µM.
For the molecule `CCCCCCC(=O)COP(=O)(OCC(=O)CCCCCC)OCC1OC(n2cc(C)c(=O)[nH]c2=O)CC1N=[N+]=[N-]` (stereo unspecified), the EC50 is 0.00107 µM and the IC50 is 2 µM.
For `CCOC(=O)NC(Nc1c(F)c(F)c(F)c(F)c1F)(C(F)(F)F)C(F)(F)F`, in that order: over 200 µM and 141 µM.
For `C=CCNC(=S)/N=C/C(C(=O)Nc1ccccc1C)=C(\C)O`, in that order: over 200 µM and over 200 µM.
For `COc1cc([N+](=O)[O-])ccc1NC(=O)Nc1cc(C)ccn1`, in that order: over 200 µM and over 200 µM.
With `O=C(/C=C/c1ccccc1Cl)c1ccc(Cl)cc1Cl`, the EC50 is over 3.31 µM and the IC50 is over 3.31 µM.
As to `O=C(O)c1ccccc1/C=C1\Cc2cc3c(cc2C1=O)CCC3`, the EC50 was over 200 µM and the IC50 is over 200 µM.
Regarding `CC(=O)OCC1OC(OC(C)=O)C(NC#N)C(OC(C)=O)C1OC(C)=O` (stereo unspecified), the EC50 was over 676 µM and the IC50 stood at 61.7 µM.
For `Cc1cc(Cl)cc2c1NC(=O)C2(O)CC(=O)c1ccc(F)cc1` (stereo unspecified), in that order: over 15.5 µM and over 15.5 µM.
For `Cc1cn(Cc2ccccc2CCO)c(=S)[nH]c1=O`, in that order: over 912 µM and over 912 µM.
With `FC(F)(Sc1ncccn1)c1nc(-c2ccccc2)no1`, the EC50 was over 200 µM and the IC50 turned out to be 53.7 µM.
For `COC(=O)C12CC3CC(C1)CC(C(=O)OC)(C3)C2`, in that order: over 513 µM and 363 µM.
On to `CC(C)=C=CCN(C)Cc1ccccc1`, for which the EC50 was over 309 µM and the IC50 is over 309 µM.
Take `CSc1nc(N)nc(N)n1`: the EC50 is over 200 µM and the IC50 was over 200 µM.
As to `O=C1NC(c2cccc(Cl)c2)N2C(=O)NC(c3cccc(Cl)c3)N12` (stereo unspecified), the result was inactive.
Turning to `Cc1ccc(C2C(C(=O)C(C)(C)C)N2S(=O)(=O)c2ccc(C)cc2)cc1` (stereo unspecified), the EC50 was over 200 µM and the IC50 was over 200 µM.
Turning to `COC(=O)NCC(OC(=O)c1cc2c(cc1I)OCO2)C1=CCCCC1` (stereo unspecified), the EC50 was over 28.8 µM and the IC50 is over 28.8 µM.
Consider `N=C(N)Cc1ccc(NC(=O)c2ccc(C(=O)Nc3ccc(CC(=N)N)cc3)cc2)cc1`, for which the EC50 was over 70.8 µM and the IC50 is 22.4 µM.
Turning to `CCOC(=O)/C(=C\c1ccc(Br)cc1)C(C)=O`, the EC50 was over 120 µM and the IC50 turned out to be 70.8 µM.
As for `O=C(O)CNC(=O)OCCCCOC(=O)NCC(=O)O`, the EC50 is over 851 µM and the IC50 is over 851 µM.
On to `C=C[C@H]1C=Cc2ccccc2[C@]1(C=O)CCC1(C)OCCO1`, for which the EC50 is over 832 µM and the IC50 stood at 676 µM.
For `O=C(CC(=O)N1N=C(c2ccccc2)C(N=Nc2ccc(Cl)cc2)C1=O)Nc1ccccc1Cl` (stereo unspecified), the EC50 was over 38 µM and the IC50 was over 38 µM.
Take `N/C(CCCC/C(N)=N/O)=N\O`: the EC50 was over 200 µM and the IC50 is over 200 µM.
For `NC(=S)N/N=C1\CCCC\C1=C/c1ccccc1`, the EC50 is over 138 µM and the IC50 amounted to 112 µM.
In the case of `O=C(NNC(=S)Nc1ccccc1)c1cc(-c2ccccc2)nc2ccccc12`, the EC50 is over 200 µM and the IC50 was determined as 21.9 µM.
Consider `Cc1ccc(-n2cc(-c3ccc(Cl)cc3)c3c(N/N=C4\SCC(=O)N4C)ncnc32)cc1`, for which the EC50 was over 200 µM and the IC50 is 8.32 µM.
Taken in the same sequence, the figures for `O=C(O)c1cc(-c2c3ccc(=O)cc-3oc3cc(O)ccc23)c(C(=O)O)cc1-c1c2ccc(=O)cc-2oc2cc(O)ccc12` were over 200 µM and over 200 µM.
Consider `CN1CCOC1(C)CO` (stereo unspecified), for which the EC50 is over 200 µM and the 50% inhibitory concentration (IC50) is over 200 µM.
For `CCC(C)C(NC(=O)C(CCC(N)=O)NC(=O)CN)C(=O)NC(Cc1ccccc1)C(=O)NC(CO)C(=O)NC(CCCN=C(N)N)C(N)=O` (stereo unspecified) (H-GQIFSR-NH2; configuration not given here), the outcome was inactive.
As to `Cc1cc(-c2cc(C(C)(C)C)c(O)c(C(C)(C)C)c2)c(C)cc1-c1cc(C(C)(C)C)c(O)c(C(C)(C)C)c1`, the EC50 was over 100 µM and the IC50 is over 100 µM.
Regarding `O=C1CCC(=O)N1C(c1ccccc1)(c1ccccc1)N1C(=O)CCC1=O`, the EC50 is over 200 µM and the IC50 stood at 15.1 µM.
For `O=S(=O)(NC(c1ccccc1)(c1cc2ccccc2[nH]1)c1cc2ccccc2n1S(=O)(=O)c1ccccc1)c1ccccc1` (stereo unspecified), in that order: over 200 µM and over 200 µM.
For `O=C1/C(=C\c2cccc(Oc3ccccc3)c2)SC(c2ccccc2)N1Cc1ccccc1` (stereo unspecified), in that order: over 20 µM and 1.29 µM.
Turning to `Nc1nc(Cl)cc(OCC2(CO)CC(OCc3ccccc3)C2)n1` (stereo unspecified), the EC50 was over 200 µM and the IC50 came out at 41.7 µM.
